Each structure is given as a SMILES string. Like-named read-outs stand apart in the source and are kept apart here.

The subject of series [1] is cancer cells. Description: Inhibition of cancer growth, cancer invasion, cell invasion or cancer cell invasion. In kind it is cell-based. From the text: The program is based on our purification methods and biological assays including the MTT assay. See International Application No. PCT/US05/31900, filed Sep. 7, 2005, U.S. Serial No. 11/289,142, filed Nov. 28, 2005, and U.S. Serial No. 11/131551, filed May 17, 2005, and PCT/US2008/002086, 1188-ALA-PCT, filed Feb. 15, 2008, 12/344,682, 1020-B1-US, filed Dec. 29, 2008. The details of Analysis of gene expression of ES2 cells after Y-treatment by Microarray, Data Analysis Methods and Western blot in PCT/US2008/002086, 1188-ALA-PCT, filed Feb. 15, 2008, and the cell invasion experiments methods in International Application PCT/US2010/0042240, filed Jul. 16, 2010.

The subject of a further series is Erythrocytes (RBC). Description: The haemolytic assay. The settings on record: in words, no concentration given.
For series [2], the system named is cancer cells. In words: MTT cytotoxic assay of esterification products (Cytotoxicity activity). The series is classed as cell-based, human. A digest of the protocol: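 Cytotoxicity was read by MTT (Carmichael method, modified), with cells seeded 24 h ahead of treatment. Sixteen human cancer lines spanning bone, lung, bladder, ovary, colon, pancreas, prostate, skin, mouth, kidney, breast, liver, brain, leukemia and cervix were used. Test samples were acyl chloride esterification products of triterpenes, as mixtures or HPLC-purified compounds.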
In general terms: Tetrazolium assays rely on reduction of a dye to a coloured formazan, in cell work by metabolically active cells.

[3] abbreviates: esterification products isolated with HPLC, graded strong / moderate / weak.
Setting [4] is: esterification products of E4A—Tig—N with senecioyl chloride.

Experimental for Erythrocytes (RBC): Erythrocytes (RBC) were isolated from human blood (EDTA whole blood, collected randomly). 50 ul of the 10% RBC suspension (in PBS) was added to 2 ml of sample solutions (concentration range from 0.1 ug/ml to 400 ug/ml) in PBS. The mixture was vortexed briefly and sat for 60 min at room temperature. The mixture was spun at 3 K for 10 min and the relative amounts of lysed hemoglobin in the supernatant were measured at 540 nm.

Turning to `CC1O[C@@H](OC2[C@H](OC3[C@H](O[C@H]4C(O[C@@H]5OC(CO)[C@H](O)[C@@H](O)C5O)[C@H](O[C@H]5CC[C@@]6(C)C(CC[C@]7(C)C6CC[C@]68O[C@H](O)[C@]9(C6CC(C)(C)[C@@H](O)[C@@H]9O)[C@H](O)C[C@]87C)C5(C)C)OC(C(=O)O)[C@H]4O)OC(CO)[C@H](O)[C@H]3O)OC(C)[C@H](O)[C@@H]2O)C(O)[C@@H](O)[C@H]1O` (some centres unmarked) [AKOH-M10], the “inhibiting cancer growth, cancer invasion, cell invasion or cancer cell invasion” value (shortened to “inhibiting cancer growth”) with cancer cells [1] is listed as “do not show the ability”. As to `CC1(C)CC2C3=CCC4[C@@]5(C)CC[C@H](O[C@@H]6OC(C(=O)O)[C@@H](O)[C@@H](O[C@@H]7O[C@@H](CO)[C@@H](O)C7O)C6O[C@@H]6OC(CO)[C@H](O)[C@@H](O)C6O)C(C)(C)C5CC[C@@]4(C)[C@]3(C)[C@@H](O)[C@@H](O)[C@@]2(CO)[C@@H](O)[C@@H]1O` (some centres unmarked) [AKOH], the hemolytic activity result in the series with Erythrocytes (RBC) was “no hemolytic activity”. Also, the anti-cancer activity result in the series with cancer cells [1] is given as “no anti-cancer activity”. Besides, the “inhibiting cancer growth” value is listed as “no effect” with cancer cells [1] and “do not show the ability” with cancer cells [1] (listed as AKOH-Y). With `CC1(C)CC2C3=CCC4C5(C)CCC(O)C(C)(CO)C5CCC4(C)C3(C)C(O)C(O)C2(CO)C(O)C1O` (centres unmarked) [Compound E4AY2], in the series on Erythrocytes (RBC), the hemolytic activity result is listed as “no hemolytic activity”. In addition, the anti-cancer activity entry with cancer cells [1] is “no anti-cancer activity”. Regarding `CC1(C)CC2C3=CCC4C5(C)CCC(O)C(C)(C)C5CCC4(C)C3(C)CC(O)C2(CO)C(O)C1O` (centres unmarked) [Compound E5A], the hemolytic activity result with Erythrocytes (RBC) is “no hemolytic activity”. Also, in the series with cancer cells [1], the anti-cancer activity entry is reported as “no anti-cancer activity” and the “inhibiting cancer growth” value is “no effect”.

Take `CC=C(C)C(=O)OCC1(C)C(O)CCC2(C)C1CCC1(C)C2CC=C2C3CC(C)(C)C(O)C(OC(=O)CCCCC)C3(COC(=O)C(C)=CC)C(O)CC21C` (centres unmarked) [Tig—R—Hex—3]: the Cytotoxicity activity entry in the series on cancer cells [2] (setting [3]) is given as “moderate”. On the same count and under the same terms, as for `CC=C(C)C(=O)OCC1(C)C(OC(=O)CCCCC)CCC2(C)C1CCC1(C)C2CC=C2C3CC(C)(C)C(O)C(O)C3(COC(=O)C(C)=CC)C(O)CC21C` (centres unmarked) [Tig—R—Hex—4], the entry is “moderate”; as for `CC=C(C)C(=O)OCC1(C)C(OC(=O)CCCCC)CCC2(C)C1CCC1(C)C2CC=C2C3CC(C)(C)C(OC(=O)CCCCC)C(O)C3(COC(=O)C(C)=CC)C(O)CC21C` (centres unmarked) [Tig—R—Hex—5], “weak”. For the compound `CC=C(C)C(=O)OCC1(C)C(OC(=O)CCCCC)CCC2(C)C1CCC1(C)C2CC=C2C3CC(C)(C)C(O)C(OC(=O)CCCCC)C3(COC(=O)C(C)=CC)C(O)CC21C` (centres unmarked) [Tig—R—Hex—6], the Cytotoxicity activity result in the series with cancer cells [2] (setting [3]) was “weak”. On to `C=CCCC(=O)OC1C(OC(=O)CCC=C)C2(COC(=O)C(C)=CC)C(O)CC3(C)C(=CCC4C5(C)CCC(O)C(C)(COC(=O)C(C)=CC)C5CCC43C)C2CC1(C)C` (centres unmarked) [Tig—R—Pen—1], for which the Cytotoxicity activity result in the series on cancer cells [2] (setting [3]) was “weak”. Still for that read-out and setting: the value for `C=CCCC(=O)OC1C(O)C2(COC(=O)C(C)=CC)C(O)CC3(C)C(=CCC4C5(C)CCC(O)C(C)(COC(=O)C(C)=CC)C5CCC43C)C2CC1(C)C` (centres unmarked) [Tig—R—Pen—2] was “moderate”. As for `C=CCCC(=O)OC1C(O)C(C)(C)CC2C3=CCC4C5(C)CCC(O)C(C)(COC(=O)C(C)=CC)C5CCC4(C)C3(C)CC(O)C21COC(=O)C(C)=CC` (centres unmarked) [Tig—R—Pen—3], the Cytotoxicity activity result with cancer cells [2] (setting [3]) is on record as “moderate”. Regarding `C=CCCC(=O)OC1CCC2(C)C(CCC3(C)C2CC=C2C4CC(C)(C)C(O)C(O)C4(COC(=O)C(C)=CC)C(O)CC23C)C1(C)COC(=O)C(C)=CC` (centres unmarked) [Tig—R—Pen—4], the Cytotoxicity activity entry in the series with cancer cells [2] (setting [3]) is given as “moderate”.

For `CC=C(C)C(=O)OCC1(C)C(O)CCC2(C)C1CCC1(C)C2CC=C2C3CC(C)(C)C(OC(=O)C=C(C)C)C(OC(=O)C=C(C)C)C3(COC(=O)C(C)=CC)C(O)CC21C` (centres unmarked) [Tig—R—Sen—1], the Cytotoxicity activity entry in the series with cancer cells [2] (setting [3]) is on record as “weak”. For `CC=C(C)C(=O)OCC1(C)C(O)CCC2(C)C1CCC1(C)C2CC=C2C3CC(C)(C)C(OC(=O)C=C(C)C)C(O)C3(COC(=O)C(C)=CC)C(O)CC21C` (centres unmarked) [Tig—R—Sen—2], the Cytotoxicity activity result in the series on cancer cells [2] (setting [3]) is reported as “moderate”. On to `CC=C(C)C(=O)OCC1(C)C(O)CCC2(C)C1CCC1(C)C2CC=C2C3CC(C)(C)C(O)C(OC(=O)C=C(C)C)C3(COC(=O)C(C)=CC)C(O)CC21C` (centres unmarked) [Tig—R—Sen—3], for which the Cytotoxicity activity result with cancer cells [2] (setting [3]) is on record as “moderate”. As for `CC=C(C)C(=O)OCC1(C)C(OC(=O)C=C(C)C)CCC2(C)C1CCC1(C)C2CC=C2C3CC(C)(C)C(O)C(O)C3(COC(=O)C(C)=CC)C(O)CC21C` (centres unmarked) [Tig—R—Sen—4], in the series with cancer cells [2] (setting [3]), the Cytotoxicity activity entry was “moderate”.

As for `CC=C(C)C(=O)OCC1(C)C(OC(=O)C=C(C)C)CCC2(C)C1CCC1(C)C2CC=C2C3CC(C)(C)C(OC(=O)C=C(C)C)C(O)C3(COC(=O)C(C)=CC)C(O)CC21C` (centres unmarked) [Tig—R—Sen—5], in the series on cancer cells [2] (setting [3]), the Cytotoxicity activity entry is reported as “weak”. For `CC=C(C)C(=O)OCC1(C)C(OC(=O)C=C(C)C)CCC2(C)C1CCC1(C)C2CC=C2C3CC(C)(C)C(O)C(OC(=O)C=C(C)C)C3(COC(=O)C(C)=CC)C(O)CC21C` (centres unmarked) [Tig—R—Sen—6], the Cytotoxicity activity entry in the series with cancer cells [2] (setting [3]) is on record as “weak”.

With `CC=C(C)C(=O)OCC1(C)C(O)CCC2(C)C1CCC1(C)C2CC=C2C3CC(C)(C)C(OC(=O)C=C(C)C)C(O)C3(COC(=O)C=C(C)C)C(O)CC21C` (centres unmarked) [Tig—Sen—2], in the series with cancer cells [2] (setting [4]), the Cytotoxicity activity entry was “moderate”. As for `CC=C(C)C(=O)OCC1(C)C(O)CCC2(C)C1CCC1(C)C2CC=C2C3CC(C)(C)C(O)C(OC(=O)C=C(C)C)C3(COC(=O)C=C(C)C)C(O)CC21C` (centres unmarked) [Tig—Sen—3], the Cytotoxicity activity result in the series on cancer cells [2] (setting [4]) was “moderate”. As for `CC=C(C)C(=O)OCC1(C)C(OC(=O)C=C(C)C)CCC2(C)C1CCC1(C)C2CC=C2C3CC(C)(C)C(O)C(O)C3(COC(=O)C=C(C)C)C(O)CC21C` (centres unmarked) [Tig—Sen—4], the Cytotoxicity activity result in the series with cancer cells [2] (setting [4]) is “moderate”. `CC=C(C)C(=O)OCC1(C)C(O)CCC2(C)C1CCC1(C)C2CC=C2C3CC(C)(C)C(OC(=O)C=C(C)C)C(O)C3(CO)C(O)CC21C` (centres unmarked) [Tig—Sen—5]: in the series on cancer cells [2] (setting [4]), the Cytotoxicity activity entry was “moderate”. As to `CC=C(C)C(=O)OCC1(C)C(O)CCC2(C)C1CCC1(C)C2CC=C2C3CC(C)(C)C(O)C(OC(=O)C=C(C)C)C3(CO)C(O)CC21C` (centres unmarked) [Tig—Sen—6], the Cytotoxicity activity result in the series on cancer cells [2] (setting [4]) is given as “moderate”.
